# Measurements reported in ChEMBL document CHEMBL3885881, “DrugMatrix”.
# Species on record: Rattus norvegicus
# Assay: DrugMatrix - Regimen: Daily Repeat
# Assay type: toxicity, organism-based, Sprague-Dawley
# Design: regimen Daily Repeat, gender Male, age 6-8 weeks
# Details: in vivo, po, route oral GAVAGE, vehicle .5 % CMC; for ABSOLUTE BASOPHIL / ABSOLUTE EOSINOPHIL / ABSOLUTE LYMPHOCYTE / ABSOLUTE MONOCYTE / ABSOLUTE SEGMENTED NEUTROPHIL / BASOPHIL / EOSINOPHIL / ERYTHROCYTE COUNT / HEMATOCRIT / HEMOGLOBIN / LEUKOCYTE COUNT / LYMPHOCYTE / MEAN CORPUSCULAR HEMOGLOBIN / MEAN CORPUSCULAR HEMOGLOBIN CONCENTRATION / MEAN CORPUSCULAR VOLUME / MONOCYTE / NEUTROPHIL / NUCLEATED RED BLOOD CELLS / PLATELET COUNT: tissue Blood; for ALANINE AMINOTRANSFERASE / ALBUMIN / ALKALINE PHOSPHATASE / ASPARTATE AMINOTRANSFERASE / BLOOD UREA NITROGEN / CARBON DIOXIDE / CHLORIDE / CHOLESTEROL / CREATINE PHOSPHOKINASE / CREATININE / GLUCOSE / LACTATE DEHYDROGENASE / LIPASE / PHOSPHORUS / POTASSIUM / SODIUM / TOTAL BILIRUBIN / TOTAL PROTEIN / URIC ACID: tissue Plasma
# [1] = 0 mg/kg, 72 h, dose level Control, time 3 day
# [2] = 0 mg/kg, 120 h, dose level Control, time 5 day
# [3] = 17 mg/kg, 72 h, dose level Low, time 3 day
smiles,measurement,setting,value
CN1CCN(CCCN2c3ccccc3Sc3ccc(Cl)cc32)CC1 [PROCHLORPERAZINE],ABSOLUTE BASOPHIL,[1],0 CELLS/uL
same,ABSOLUTE EOSINOPHIL,[1],0 CELLS/uL
same,ABSOLUTE LYMPHOCYTE,[1],10913.67 CELLS/uL
same,ABSOLUTE MONOCYTE,[1],85.33 CELLS/uL
same,ABSOLUTE SEGMENTED NEUTROPHIL,[1],1401 CELLS/uL
same,BASOPHIL,[1],0%
same,EOSINOPHIL,[1],0%
same,ERYTHROCYTE COUNT,[1],5.57 x10E6/uL
same,HEMATOCRIT,[1],35.58%
same,HEMOGLOBIN,[1],13.8 G/DL
same,LEUKOCYTE COUNT,[1],12.4 x10E3/uL
same,LYMPHOCYTE,[1],88%
same,MEAN CORPUSCULAR HEMOGLOBIN,[1],24.78 pg
same,MEAN CORPUSCULAR HEMOGLOBIN CONCENTRATION,[1],38.82 G/DL
same,MEAN CORPUSCULAR VOLUME,[1],63.88 fL
same,MONOCYTE,[1],0.67%
same,NEUTROPHIL,[1],11.33%
same,NUCLEATED RED BLOOD CELLS,[1],0 /100WBC
same,PLATELET COUNT,[1],1162.33 x10E3/uL
same,ALANINE AMINOTRANSFERASE,[1],53 u/L
same,ALBUMIN,[1],4.17 G/DL
same,ALKALINE PHOSPHATASE,[1],374.5 u/L
same,ASPARTATE AMINOTRANSFERASE,[1],89.5 u/L
same,BLOOD UREA NITROGEN,[1],16.33 mg/dL
same,CARBON DIOXIDE,[1],29.17 mmol/L
same,CHLORIDE,[1],97.67 MEQ/L
same,CHOLESTEROL,[1],77 mg/dL
same,CREATINE PHOSPHOKINASE,[1],464.83 u/L
same,CREATININE,[1],0.14 mg/dL
same,GLUCOSE,[1],164 mg/dL
same,LACTATE DEHYDROGENASE,[1],155.5 u/L
same,LIPASE,[1],9.17 u/L
same,PHOSPHORUS,[1],12.4 mg/dL
same,POTASSIUM,[1],6.91 MEQ/L
same,SODIUM,[1],141.47 MEQ/L
same,TOTAL BILIRUBIN,[1],0.2 mg/dL
same,TOTAL PROTEIN,[1],5.95 G/DL
same,URIC ACID,[1],1.72 mg/dL
same,ABSOLUTE BASOPHIL,[2],0 CELLS/uL
same,ABSOLUTE EOSINOPHIL,[2],20.5 CELLS/uL
same,ABSOLUTE LYMPHOCYTE,[2],13871.67 CELLS/uL
same,ABSOLUTE MONOCYTE,[2],60.5 CELLS/uL
same,ABSOLUTE SEGMENTED NEUTROPHIL,[2],980.67 CELLS/uL
same,BASOPHIL,[2],0%
same,EOSINOPHIL,[2],0.17%
same,ERYTHROCYTE COUNT,[2],5.65 x10E6/uL
same,HEMATOCRIT,[2],35.63%
same,HEMOGLOBIN,[2],14.08 G/DL
same,LEUKOCYTE COUNT,[2],14.93 x10E3/uL
same,LYMPHOCYTE,[2],92.83%
same,MEAN CORPUSCULAR HEMOGLOBIN,[2],24.97 pg
same,MEAN CORPUSCULAR HEMOGLOBIN CONCENTRATION,[2],39.55 G/DL
same,MEAN CORPUSCULAR VOLUME,[2],63.13 fL
same,MONOCYTE,[2],0.33%
same,NEUTROPHIL,[2],6.67%
same,NUCLEATED RED BLOOD CELLS,[2],0 /100WBC
same,PLATELET COUNT,[2],1248.17 x10E3/uL
same,ALANINE AMINOTRANSFERASE,[2],45.17 u/L
same,ALBUMIN,[2],4.27 G/DL
same,ALKALINE PHOSPHATASE,[2],405.67 u/L
same,ASPARTATE AMINOTRANSFERASE,[2],74.17 u/L
same,BLOOD UREA NITROGEN,[2],15.5 mg/dL
same,CARBON DIOXIDE,[2],30.17 mmol/L
same,CHLORIDE,[2],100.67 MEQ/L
same,CHOLESTEROL,[2],57 mg/dL
same,CREATINE PHOSPHOKINASE,[2],239.5 u/L
same,CREATININE,[2],0.17 mg/dL
same,GLUCOSE,[2],165.67 mg/dL
same,LACTATE DEHYDROGENASE,[2],90.5 u/L
same,LIPASE,[2],8.83 u/L
same,PHOSPHORUS,[2],12.32 mg/dL
same,POTASSIUM,[2],7.03 MEQ/L
same,SODIUM,[2],142.65 MEQ/L
same,TOTAL BILIRUBIN,[2],0.18 mg/dL
same,TOTAL PROTEIN,[2],6.03 G/DL
same,URIC ACID,[2],1.98 mg/dL
same,ABSOLUTE BASOPHIL,[3],0 CELLS/uL
same,ABSOLUTE EOSINOPHIL,[3],0 CELLS/uL
same,ABSOLUTE LYMPHOCYTE,[3],10730.67 CELLS/uL
same,ABSOLUTE MONOCYTE,[3],90 CELLS/uL
same,ABSOLUTE SEGMENTED NEUTROPHIL,[3],1446 CELLS/uL
same,BASOPHIL,[3],0%
same,EOSINOPHIL,[3],0%
same,ERYTHROCYTE COUNT,[3],5.49 x10E6/uL
same,HEMATOCRIT,[3],34.9%
same,HEMOGLOBIN,[3],13.83 G/DL
same,LEUKOCYTE COUNT,[3],12.27 x10E3/uL
same,LYMPHOCYTE,[3],87.67%
same,MEAN CORPUSCULAR HEMOGLOBIN,[3],25.3 pg
same,MEAN CORPUSCULAR HEMOGLOBIN CONCENTRATION,[3],39.67 G/DL
same,MEAN CORPUSCULAR VOLUME,[3],63.77 fL
same,MONOCYTE,[3],0.67%
same,NEUTROPHIL,[3],11.67%
same,NUCLEATED RED BLOOD CELLS,[3],0.33 /100WBC
same,PLATELET COUNT,[3],1239 x10E3/uL
same,ALANINE AMINOTRANSFERASE,[3],45 u/L
same,ALBUMIN,[3],4.17 G/DL
same,ALKALINE PHOSPHATASE,[3],413.67 u/L
same,ASPARTATE AMINOTRANSFERASE,[3],85.33 u/L
same,BLOOD UREA NITROGEN,[3],15.33 mg/dL
same,CARBON DIOXIDE,[3],26 mmol/L
same,CHLORIDE,[3],99.33 MEQ/L
same,CHOLESTEROL,[3],67.67 mg/dL
same,CREATINE PHOSPHOKINASE,[3],343 u/L
same,CREATININE,[3],0.13 mg/dL
same,GLUCOSE,[3],151 mg/dL
same,LACTATE DEHYDROGENASE,[3],394.67 u/L
same,LIPASE,[3],9.67 u/L
same,PHOSPHORUS,[3],14.23 mg/dL
same,POTASSIUM,[3],6.98 MEQ/L
same,SODIUM,[3],143.17 MEQ/L
same,TOTAL BILIRUBIN,[3],0.2 mg/dL
same,TOTAL PROTEIN,[3],5.9 G/DL
same,URIC ACID,[3],1.5 mg/dL
